The source of these data is patent publication US20120274239A1, “METHOD OF MANUFACTURING ORGANIC ELECTROLUMINESCENCE DISPLAY DEVICE AND ELECTRONIC EQUIPMENT INCLUDING ORGANIC ELECTROLUMINESCENCE DISPLAY DEVICE MANUFACTURED BY THE MANUFACTURING METHOD” (CANON KABUSHIKI KAISHA, priority 2011, published 2012).

The nature of series [1]: solubility in the IPA/water mixed solvent (FIG. 4). In kind it is physicochemical. Conditions: IPA/water mixed solvent having an IPA concentration of 80 wt %. An excerpt: The solubility of a compound as a constituent material for each layer in the IPA/water mixed solvent varies depending on the weight ratio of IPA in the mixed solvent. FIG. 4 is a graph illustrating the solubilities of the compound 1 (condensed polycyclic hydrocarbon compound) and the compound A2 (heterocyclic compound) in the IPA/water mixed solvent (polar solvent). Here, in the graph of FIG. 4, the axis of abscissa indicates the weight percent concentration of IPA in the IPA/water mixed solvent, and the axis of ordinate indicates the amount of the condensed polycyclic hydrocarbon compound or heterocyclic compound to dissolve in 1 g of the solvent.

The nature of series [2]: etching rate (dissolution rate) of a deposited layer in the IPA/water mixed solvent. The class given is physicochemical. Conditions: IPA 60 wt %; for etching rate: layer of the compound, polar solvent: IPA/water mixed solvent. An excerpt:
In the present invention, a larger etching rate means a higher dissolution rate. In addition, a larger etching rate means a higher solubility of a layer having a material of interest in the solvent (polar solvent).
FIG. 3 is a graph illustrating thickness changes in the compound 1 and the compound A2 over an etching time. Here, FIG. 3 illustrates the results of the etching of the respective layers when a mixed solvent obtained by mixing isopropyl alcohol (IPA) and water so that IPA may account for 60 wt % (hereinafter, sometimes referred to as “IPA/water mixed solvent”) is used as a polar solvent.
On the other hand, the thickness of a layer (layer B) formed of the compound A2 as a heterocyclic compound reduces over time. When the etching rates of the respective layers are calculated with their etching conditions made identical to each other, the etching rate of the layer A is 0.008 nm/sec but the etching rate of the layer B is 0.87 nm/sec, that is, a ratio of the latter to the former is about 100.
Here, a ratio (n) between the etching rates of the uppermost layer (layer A) of the organic compound layer and the lowermost layer (layer B) of the release layer by the polar solvent used upon removal of the release layer under the same temperature conditions can be represented like the following equation.
Next, the photosensitive resin layer 41 was removed by performing dry etching with oxygen as a reactant gas under the conditions of a flow rate of 20 sccm, a pressure of 8 Pa, and an output of 150 W (FIG. 2L). Next, the release layer 30 was removed with a mixed solvent obtained by mixing water and IPA so that an IPA concentration was 60 wt % (FIG. 2M). It should be noted that as the etching rate of the compound (phenanthroline derivative represented by the formula (2)) constituting the release layer 30 in this example was 0.9 nm/sec, the release layer 30 was removed through immersion in the mixed solvent for 600 seconds. Next, vacuum heating was performed at 80° C. so that the solvent remaining on the organic compound layer was removed. It should be noted that the etching rate of the compound represented by the formula (1) serving as the uppermost layer of the organic compound layer placed in each sub-pixel for the polar solvent used for removing the release layer is about 0.0045 nm/sec, which is sufficiently small as compared with the etching rate of the release layer 30.

As for `CC1(C)c2cc(-c3ccc4ccc5cccc6ccc3c4c56)ccc2-c2ccc(-c3ccc4ccc5cccc6ccc3c4c56)cc21` [compound 1], the “amount to dissolve in 1 g of the solvent” value in series [1] was 5 µg. Moreover, the values for the etching rate in series [2] and in series [2] (listed as formula (1)) were 0.008 nm/s and “about 0.0045 nm/sec”, respectively. Turning to `CC1(C)c2ccccc2-c2ccc(-c3ccc4ccc5ccc(-c6ccc7c(c6)C(C)(C)c6ccccc6-7)nc5c4n3)cc21` [compound A2], the “amount to dissolve in 1 g of the solvent” value in series [1] was found to be 73 µg. The “etching rate ratio (n) of layer B (release layer) to layer A (uppermost organic compound layer)” value in series [2] (compound A2 layer versus compound 1 layer, IPA/water mixed solvent, identical etching conditions) is given as “about 100”. The results for the etching rate in series [2] and in series [2] (listed as formula (2)) were 0.87 nm/s and 0.9 nm/s, respectively. `c1ccc(-n2c(-c3cc(-c4nc5ccccc5n4-c4ccccc4)cc(-c4nc5ccccc5n4-c4ccccc4)c3)nc3ccccc32)cc1` [compound A7] had an etching rate in series [2] of 1.6 nm/s. The same measure, in the same setting: as for `c1ccc(-c2cc(-c3ccccc3)cc(-c3cccc(-c4cccc(-c5ccc6c7ccccc7c7ccccc7c6c5)c4)c3)c2)cc1` [compound B1], the figure is 1.3 nm/s; as for `O=C1c2ccccc2OC2C=CC(c3cccc(-c4cccc(-c5cc(-c6cccc(-c7ccccc7)c6)cc(-c6cccc(-c7ccccc7)c6)c5)c4)c3)=CC12` (stereo not drawn) [compound Cl], 1.5 nm/s; as for `O=S(=O)(Oc1ccc2cc(-c3ccc4ccccc4c3)ccc2c1)C(F)(F)F` [compound D6], 2.5 nm/s. Consider `CC(C)(C)c1cc2ccc3ccc(B4OC(C)(C)C(C)(C)O4)c4ccc(c1)c2c34` [compound D8], for which the etching rate in series [2] is 3.0 nm/s.
